We go through 30 compounds from patent US20230416205A1, “COMPOUNDS, COMPOSITIONS, AND METHODS” (Denali Therapeutics Inc, priority 2020, published 2023).

Where two headings read alike, the source gives them in different places.

The test system of this assay is NLRP3. Nature of the assay: IL-1β secretion assay in PMA-differentiated, LPS/nigericin-stimulated THP-1 cells (384-well, ELISA read-out). It is filed as cell-based, human. As to conditions: Homo sapiens. The method in brief:
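THP-1 cells differentiated with PMA (5 ng/mL, 40 h), primed in serum-free medium with 25 ng/mL LPS for 2 h, treated with compounds 1 h (0.5% DMSO), then stimulated with nigericin for 2 h at 37 °C. Supernatant IL-1β measured by ELISA; responses normalized to LPS+5 μM nigericin and LPS-only controls.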
(ELISA stands for enzyme-linked immunosorbent assay.)

Setting [1] is: THP-1, IL-1β secretion, PMA-differentiated THP-1 cells, LPS then nigericin stimulation, ELISA read at 450 nm, read-out: Activity.
[2] abbreviates: THP-1, Table 4, IL-1β secretion, LPS/nigericin-stimulated THP-1 cells, read-out: IC50.

Turning to `O=C(CN1CC2(CC2)c2cc(OCF)ccc2C1=O)Nc1ncccn1` [Example 82, 2-[6-(fluoromethoxy)-1-oxospiro[3H-isoquinoline-4,1′-cyclopropane]-2-yl]-N-pyrimidin-2-ylacetamide], the IC50 by setting is: under setting [1], under 10000 nM; under setting [2], 2220 nM.
Take `O=C(CN1CC2(CC2)c2c(ccc(Br)c2Cl)C1=O)Nc1ncc(F)cn1` [Example 83, 2-(6-bromo-5-chloro-1-oxospiro[3H-isoquinoline-4,1′-cyclopropane]-2-yl)-N-(5-fluoropyrimidin-2-yl)acetamide]: the IC50 by setting is: under setting [1], under 10000 nM; under setting [2], 521 nM.
`O=C(CN1CC2(CC2)c2cc(C(F)(F)F)c(F)cc2C1=O)Nc1ncc(F)cn1` [Example 84, 2-[7-fluoro-1-oxo-6-(trifluoromethyl)spiro[3H-isoquinoline-4,1′-cyclopropane]-2-yl]-N-(5-fluoropyrimidin-2-yl)acetamide]: the IC50 is, setting by setting: under setting [1], under 10000 nM; under setting [2], 5980 nM.
The matching figures for `N#Cc1cnc(NC(=O)CN2CC3(CC3)c3cc(C(F)(F)F)ccc3C2=O)c(F)c1` [Example 85, N-(5-cyano-3-fluoropyridin-2-yl)-2-[1-oxo-6-(trifluoromethyl)spiro[3H-isoquinoline-4,1′-cyclopropane]-2-yl]acetamide]: under 10000 nM and 992 nM.
Consider `O=C(CN1C[C@@]2(C[C@@H]2C(F)(F)F)c2cc(Br)ccc2C1=O)Nc1ncc(F)cn1` [Example 86, 2-[(2′s,4r)-6-bromo-1-oxo-2′-(trifluoromethyl)spiro[3H-isoquinoline-4,1′-cyclopropane]-2-yl]-N-(5-fluoropyrimidin-2-yl)acetamide], for which the IC50 runs as follows: under setting [1], under 10000 nM; under setting [2], 2810 nM.
In the case of `O=C(CN1CC2(CC2)c2cc(C3CCC3)ccc2C1=O)Nc1ncc(F)cn1` [Example 87, 2-(6-cyclobutyl-1-oxospiro[3H-isoquinoline-4,1′-cyclopropane]-2-yl)-N-(5-fluoropyrimidin-2-yl)acetamide], the IC50 is under 10000 nM under setting [1] and 5390 nM under setting [2].
For the compound `O=C(CN1CC2(CC2)c2cc(C3CC3(F)F)ccc2C1=O)Nc1ncc(F)cn1` (stereo not drawn) [Example 88, 2-[6-(2,2-difluorocyclopropyl)-1-oxo-spiro[3H-isoquinoline-4,1′-cyclopropane]-2-yl]-N-(5-fluoropyrimidin-2-yl)acetamide], the IC50 is under 10000 nM under setting [1] and 3610 nM under setting [2].
For the compound `N#Cc1c(C(F)(F)F)ccc2c1C1(CC1)CN(CC(=O)Nc1ncc(F)cn1)C2=O` [Example 89, 2-[5-cyano-1-oxo-6-(trifluoromethyl)spiro[3H-isoquinoline-4,1′-cyclopropane]-2-yl]-N-(5-fluoropyrimidin-2-yl)acetamide], the IC50 is under 10000 nM under setting [1] and 6840 nM under setting [2].
Regarding `O=C(CN1CC2(CC2)c2cc(I)ccc2C1=O)Nc1ncc(F)cn1` [Example 90, N-(5-fluoropyrimidin-2-yl)-2-(6-iodo-1-oxospiro[3H-isoquinoline-4,1′-cyclopropane]-2-yl)acetamide], the IC50 is under 10000 nM under setting [1] and 34 nM under setting [2].
Regarding `COc1ccc2c(c1)C1(CC1)CN(CC(=O)Nc1ncccn1)C2=O` [Example 91, 2-(6-methoxy-1-oxospiro[3H-isoquinoline-4,1′-cyclopropane]-2-yl)-N-pyrimidin-2-ylacetamide], the IC50 was under 10000 nM under setting [1] and 3210 nM under setting [2].
As for `O=C(CN1CC2(COC2)c2cc(Br)ccc2C1=O)Nc1ncccn1` [Example 92, 2-(6-bromo-1-oxospiro[3H-isoquinoline-4,3′-oxetane]-2-yl)-N-pyrimidin-2-ylacetamide], the IC50 reads like this: under setting [1], under 10000 nM; under setting [2], 4460 nM.
As for `N#CC1(c2ccc3c(c2)C2(CC2)CN(CC(=O)Nc2ncc(F)cn2)C3=O)CC1` [Example 93, 2-[6-(1-cyanocyclopropyl)-1-oxospiro[3H-isoquinoline-4,1′-cyclopropane]-2-yl]-N-(5-fluoropyrimidin-2-yl)acetamide], the IC50 runs as follows: under setting [1], under 10000 nM; under setting [2], 2280 nM.
The matching figures for `O=C(CN1CC2(CC2)c2cc(Cl)ccc2C1=O)Nc1ncc(F)cn1` [Example 94, 2-(6-chloro-1-oxospiro[3H-isoquinoline-4,1′-cyclopropane]-2-yl)-N-(5-fluoropyrimidin-2-yl)acetamide]: under 10000 nM and 369 nM.
In the case of `O=C(CN1CC(C(F)F)c2cc(Br)ccc2C1=O)Nc1ncc(F)cn1` (stereo not drawn) [Example 95, 2-[6-bromo-4-(difluoromethyl)-1-oxo-3,4-dihydroisoquinolin-2-yl]-N-(5-fluoropyrimidin-2-yl)acetamide], the IC50 reads like this: under setting [1], under 10000 nM; under setting [2], 320 nM.
Turning to `O=C(CN1CC2(CC2)c2cc(C(F)F)ccc2C1=O)Nc1ncc(F)cn1` [Example 96, 2-[6-(difluoromethyl)-1-oxospiro[3H-isoquinoline-4,1′-cyclopropane]-2-yl]-N-(5-fluoropyrimidin-2-yl)acetamide], the IC50 under setting [1] is under 10000 nM and the IC50 under setting [2] was found to be 1330 nM.
As to `CC1(c2ccc3c(c2)C2(CC2)CN(CC(=O)Nc2ncc(F)cn2)C3=O)CC1` [Example 97, N-(5-fluoropyrimidin-2-yl)-2-[6-(1-methylcyclopropyl)-1-oxospiro[3H-isoquinoline-4,1′-cyclopropane]-2-yl]acetamide], the IC50 is under 10000 nM under setting [1] and 1220 nM under setting [2].
In the case of `O=C(CN1CC2(CC2)c2c(ccc(Cl)c2F)C1=O)Nc1ncc(F)cn1` [Example 98, 2-(6-chloro-5-fluoro-1-oxospiro[3H-isoquinoline-4,1′-cyclopropane]-2-yl)-N-(5-fluoropyrimidin-2-yl)acetamide], the IC50 reads like this: under setting [1], under 10000 nM; under setting [2], 349 nM.
Take `O=C(CN1CC2(CC2)c2cc(Br)c(F)cc2C1=O)Nc1ncc(F)cn1` [Example 99, 2-(6-bromo-7-fluoro-1-oxospiro[3H-isoquinoline-4,1′-cyclopropane]-2-yl)-N-(5-fluoropyrimidin-2-yl)acetamide]: the IC50 runs as follows: under setting [1], under 10000 nM; under setting [2], 598 nM.
`O=C(CN1CC2(CC2)c2c(ccc(C3CC3)c2F)C1=O)Nc1ncc(F)cn1` [Example 100, 2-(6-cyclopropyl-5-fluoro-1-oxospiro[3H-isoquinoline-4,1′-cyclopropane]-2-yl)-N-(5-fluoropyrimidin-2-yl)acetamide]: the IC50 was under 10000 nM under setting [1] and 114 nM under setting [2].
For the compound `CC(F)(F)c1ccc2c(c1)C1(CC1)CN(CC(=O)Nc1ncc(F)cn1)C2=O` [Example 101, 2-[6-(1,1-difluoroethyl)-1-oxospiro[3H-isoquinoline-4,1′-cyclopropane]-2-yl]-N-(5-fluoropyrimidin-2-yl)acetamide], the IC50 under setting [1] is under 10000 nM and the IC50 under setting [2] turned out to be 672 nM.
Turning to `O=C(CN1CC2(CC2)c2cc(Br)ccc2C1=S)Nc1ncc(F)cn1` [Example 102, 2-(6-bromo-1-sulfanylidenespiro[3H-isoquinoline-4,1′-cyclopropane]-2-yl)-N-(5-fluoropyrimidin-2-yl)acetamide], the IC50 is, setting by setting: under setting [1], under 10000 nM; under setting [2], 169 nM.
For `O=C(CN1CC2(CC2)c2cc(Br)ccc2C1=O)Nc1ncc(-c2ccccn2)cn1` [Example 104, 2-(6-bromo-1-oxospiro[3H-isoquinoline-4,1′-cyclopropane]-2-yl)-N-(5-pyridin-2-ylpyrimidin-2-yl)acetamide], the IC50 under setting [1] is under 10000 nM and the IC50 under setting [2] is 1870 nM.
Consider `N#Cc1cnc(NC(=O)CN2CC3(CC3)c3c(ccc(Br)c3F)C2=O)nc1` [Example 105, 2-(6-bromo-5-fluoro-1-oxospiro[3H-isoquinoline-4,1′-cyclopropane]-2-yl)-N-(5-cyanopyrimidin-2-yl)acetamide], for which the IC50 is, setting by setting: under setting [1], under 10000 nM; under setting [2], 119 nM.
As for `N#Cc1cnc(NC(=O)CN2CC3(CC3)c3c(ccc(Br)c3F)C2=O)c(F)c1` [Example 106, 2-(6-bromo-5-fluoro-1-oxospiro[3H-isoquinoline-4,1′-cyclopropane]-2-yl)-N-(5-cyano-3-fluoropyridin-2-yl)acetamide], the IC50 is under 10000 nM under setting [1] and 156 nM under setting [2].
For `N#Cc1ccnc(NC(=O)CN2CC3(CC3)c3cc(Br)ccc3C2=O)n1` [Example 107, 2-(6-bromo-1-oxospiro[3H-isoquinoline-4,1′-cyclopropane]-2-yl)-N-(4-cyanopyrimidin-2-yl)acetamide], the IC50 is, setting by setting: under setting [1], under 10000 nM; under setting [2], 2820 nM.
As for `O=C(CN1CC2(CC2)c2c(ccc(I)c2F)C1=O)Nc1ncc(F)cn1` [Example 108, 2-(5-fluoro-6-iodo-1-oxospiro[3H-isoquinoline-4,1′-cyclopropane]-2-yl)-N-(5-fluoropyrimidin-2-yl)acetamide], the IC50 is under 10000 nM under setting [1] and 18 nM under setting [2].
The matching figures for `O=C(CN1C[C@]2(C[C@H]2F)c2cc(Br)ccc2C1=O)Nc1ncccn1` [Example 109]: under 10000 nM and 36 nM.
`O=C(CN1C[C@]2(C[C@H]2F)c2cc(Br)ccc2C1=O)Nc1ncc(Cl)cn1` [Example 110]: the IC50 runs as follows: under setting [1], under 10000 nM; under setting [2], 12 nM.
With `O=C(CN1CC2(CC2)c2cc(Br)ccc2C1=O)NC1CC(C(F)F)C1` (stereo not drawn) [Example 111, 2-(6-bromo-1-oxospiro[3H-isoquinoline-4,1′-cyclopropane]-2-yl)-N-[3-(difluoromethyl)cyclobutyl]acetamide], the IC50 is, setting by setting: under setting [1], under 10000 nM; under setting [2], 2420 nM.
The matching figures for `O=C(CN1CC2(CC2)c2cc(Br)ccc2C1=O)NCC1(CC(F)F)CCC1` [Example 112, 2-(6-bromo-1-oxospiro[3H-isoquinoline-4,1′-cyclopropane]-2-yl)-N-[[1-(2,2-difluoroethyl)cyclobutyl]methyl]acetamide]: over 15000 nM and 13000 nM.
